In US20130012432A1, “Peptides for Treatment of Obesity” (Novo Nordisk A/S, priority 2010, published 2013):
Values after ≈ are worked out from the molar mass of the structure shown. Positions of bridges follow the written chain, without caps; N, C: chain ends. Non-standard residues stand in square brackets, D forms with d. Residues, ends and D or L forms follow the SMILES beside them. Groups on a side chain read outwards from the residue. *: point of attachment. Palmitoyl(16-(5-tetrazolyl)) = O=C(CCCCCCCCCCCCCCCc1nnn[nH]1)*; Lys(CH2CO2H)2 = N[C@@H](CCCCN(CC(=O)O)CC(=O)O)C(=O)O; C18 diacid = O=C(O)CCCCCCCCCCCCCCCCC(=O)*; NTA = O=C(O)CN(CC(=O)O)CC(=O)*; Orn = NCCC[C@H](N)C(=O)O; Dap = NC[C@H](N)C(=O)O; AEEA = NCCOCCOCC(=O)O

Legend:
[1] = physchem
Experimental: From a stock solution in vehicle, either H2O or 10 mM phosphate, containing 1 mg (as weighed) compound per ml, 8-11 aliquots are withdrawn and pH-adjusted individually with HCl/NaOH, to cover the whole pH range.

[2] = target: human MC4 receptor (Homo sapiens, UniProt P32245); experiment: biochemical
Experimental: Assay (V)—Melanocortin Receptor 4 (MC4) Binding Assay
In Vitro ^125NDP-α-MSH Binding to Recombinant BHK Cells Expressing Human MC4 Receptor (Filtration Assay).
The assay was performed in 5 ml minisorb vials (Sarstedt No. 55.526) or in 96-well filter-plates (Millipore MADVN 6550), and using BHK cells expressing the human MC4 receptor using BHK cells stably expressing the human MC4 receptor. The membranes were prepared from frozen or fresh cells that were homogenized in 20 mM HEPES pH 7.1, 5 mM MgCl2 and 1 mg/ml bacitracin and centrifuged at 15000 rpm at 4° C., 10 min in a Sorvall RC 5B plus, SS-34 rotor. The supernatant was discarded, and the pellets were re-suspended in buffer, homogenized and centrifuged two more times. The final pellets were resuspended in the buffer mentioned above, and the protein concentration was measured and adjusted with buffer to 14 to 17 mg/ml and the membrane preparation were kept at −80° C. until assay. The assay was run directly on a dilution of this cell membrane suspension, without any further preparation. The BHK cell membranes are kept at −80° C. until assay, and the assay is run directly on a dilution of this cell membrane suspension, without further preparation. The suspension is diluted to give maximally 10% specific binding, i.e. to approx. 50-100 fold dilution. The assay was performed in a total volume of 200 μl: 50 μl of cell suspension, 50 μl of ^125NDP-α-MSH (≈79 pM in final concentration), 50 μl of test compound and 50 μl binding buffer (pH 7) mixed and incubated for 2 h at 25° C. [binding buffer: 25 mM HEPES, pH 7.0, 1 mM CaCl2, 1 mM MgSO4, 1 mM EGTA, 0.02% Bacitracin, 0.005% Tween™ 20 and 0.1% HSA or, alternatively, 0.1% ovalbumin (Sigma; catalogue No. A-5503)]. Test compounds were dissolved in DMSO and diluted in binding buffer. Radiolabelled ligand and membranes were diluted in binding buffer. The incubation was stopped by dilution with 2×100 μl ice-cold 0.9% NaCl. The radioactivity retained on the filters was counted using a Cobra II auto gamma counter.
The data were analysed by non-linear regression analysis of binding curves, using the Windows™ program GraphPad™ Prism (GraphPad Software, USA).

[3] = pH 6.4, Solubility Conc., pH 6.4, vehicle 10 mM phosphate
[4] = pH 6.7, Solubility Conc., pH 6.7, vehicle 10 mM phosphate
[5] = pH 7, Solubility Conc., pH 7.0, vehicle 10 mM phosphate
[6] = pH 7.2, Solubility Conc., pH 7.2, vehicle 10 mM phosphate
[7] = pH 7.8, Solubility Conc., pH 7.8, vehicle 10 mM phosphate

human MC4 receptor, sequence (P32245 whole entry): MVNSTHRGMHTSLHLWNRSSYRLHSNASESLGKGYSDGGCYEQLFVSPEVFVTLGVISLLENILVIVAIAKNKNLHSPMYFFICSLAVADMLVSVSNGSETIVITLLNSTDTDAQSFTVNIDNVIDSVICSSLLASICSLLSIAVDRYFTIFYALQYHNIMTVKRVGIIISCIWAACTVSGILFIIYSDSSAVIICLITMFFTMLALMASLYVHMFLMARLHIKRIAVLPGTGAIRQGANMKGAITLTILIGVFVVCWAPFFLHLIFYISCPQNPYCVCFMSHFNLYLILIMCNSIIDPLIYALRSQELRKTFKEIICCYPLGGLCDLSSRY

Structure (SMILES)	solubility [1, 3] [µM]	solubility [1, 4] [µM]	solubility [1, 5] [µM]	solubility [1, 6] [µM]	solubility [1, 7] [µM]	Ki [2] [nM]	solubility ([1]; pH 7.2, Solubility Conc.) [µM]	solubility ([1]; pH 7.3, Solubility Conc.) [µM]	solubility ([1]; pH 7.4, Solubility Conc.) [µM]	solubility ([1]; pH 7.5, Solubility Conc.) [µM]	solubility ([1]; pH 7.7, Solubility Conc.) [µM]	solubility ([1]; pH 7.9, Solubility Conc.) [µM]	other results
CC(=O)N[C@H]1CCCNC(=O)C[C@@H](C(=O)N2CCC[C@H]2C(=O)N[C@@H](CO)C(=O)N[C@@H](CO)C(=O)N[C@@H](CO)C(=O)N[C@@H](CCCCN(CC(=O)O)CC(=O)O)C(=O)N[C@@H](CO)C(=O)N[C@@H](CO)C(=O)N[C@@H](CCCCNC(=O)COCCOCCNC(=O)CCCCCCCCCCCCCCCCC(=O)O)C(N)=O)NC(=O)[C@H](Cc2c[nH]c3ccccc23)NC(=O)[C@H](CCCNC(=N)N)NC(=O)[C@@H](Cc2ccccc2)NC(=O)[C@H](Cc2c[nH]cn2)NC1=O [Example 14, Ac-c[Orn-His-D-Phe-Arg-Trp-Asp]-Pro-Ser-Ser-Ser-Lys(biscarboxymethyl)-Ser-Ser-Lys({2-[2-(17-carboxyheptadecanoylamino)ethoxy]ethoxy}acetyl)-NH2] (Ac-[Orn]H[dF]RWDPSSS[Lys(CH2CO2H)2]SSK([AEEA-C18 diacid])-NH2; lactam 1-6)	61 (≈ 137 µg/mL)	148 (≈ 332 µg/mL)	485 (≈ 1090 µg/mL)	507 (≈ 1140 µg/mL)	506 (≈ 1140 µg/mL)	0.8	–	–	–	–	–	–	solubility ([1]; pH 6.9, Solubility Conc., pH 6.9, vehicle 10 mM phosphate): 403 µM (≈ 904 µg/mL); solubility ([1]; pH 7.3, Solubility Conc., pH 7.3, vehicle 10 mM phosphate): 535 µM (≈ 1200 µg/mL); solubility ([1]; pH 7.4, Solubility Conc., pH 7.4, vehicle 10 mM phosphate): 513 µM (≈ 1150 µg/mL); solubility ([1]; pH 8, Solubility Conc., pH 8.0, vehicle 10 mM phosphate): 517 µM (≈ 1160 µg/mL)
CC(=O)N[C@H]1CC(=O)NC[C@@H](C(=O)N2CCC[C@H]2C(=O)N2CCC[C@H]2C(=O)N[C@@H](CCCNC(=N)N)C(=O)N[C@@H](CC(=O)O)C(=O)N[C@@H](CCCCNC(=O)CN(CC(=O)O)CC(=O)O)C(=O)N[C@@H](CCCCNC(=O)COCCOCCNC(=O)CCCCCCCCCCCCCCCc2nnn[nH]2)C(N)=O)NC(=O)[C@H](Cc2c[nH]c3ccccc23)NC(=O)[C@H](CCCNC(=N)N)NC(=O)[C@@H](Cc2ccccc2)NC(=O)[C@H](Cc2c[nH]cn2)NC1=O [Example 24, Ac-c[Asp-His-D-Phe-Arg-Trp-Dap]-Pro-Pro-Arg-Asp-Lys(BCMA)-Lys[(2-{2-[16-(tetrazol-5-yl)hexadecanoylamino]ethoxy}ethoxy)acetyl]-NH2] (Ac-DH[dF]RW[Dap]PPRDK(NTA)K([AEEA-Palmitoyl(16-(5-tetrazolyl))])-NH2; lactam 1-6)	–	–	–	–	–	107	–	–	–	–	–	–	–
CC(=O)N[C@H]1CCCNC(=O)C[C@@H](C(=O)N2CCC[C@H]2C(=O)N[C@@H](CO)C(=O)N[C@@H](CO)C(=O)N[C@@H](CO)C(=O)N[C@@H](CCCCN(CC(=O)O)CC(=O)O)C(=O)N[C@@H](CO)C(=O)N[C@@H](CO)C(=O)N[C@@H](CCCCNC(=O)COCCOCCNC(=O)CCCCCCCCCCCCCCCc2nnn[nH]2)C(N)=O)NC(=O)[C@H](Cc2c[nH]c3ccccc23)NC(=O)[C@H](CCCNC(=N)N)NC(=O)[C@@H](Cc2ccccc2)NC(=O)[C@H](Cc2c[nH]cn2)NC1=O [Example 28, Ac-c[Orn-His-D-Phe-Arg-Trp-Asp]-Pro-Ser-Ser-Ser-Lys(biscarboxymethyl)-Ser-Ser-Lys[(2-{2-[16-(tetrazol-5-yl)hexadecanoylamino]ethoxy}ethoxy)acetyl]-NH2] (Ac-[Orn]H[dF]RWDPSSS[Lys(CH2CO2H)2]SSK([AEEA-Palmitoyl(16-(5-tetrazolyl))])-NH2; lactam 1-6)	59 (≈ 133 µg/mL)	126 (≈ 284 µg/mL)	382 (≈ 861 µg/mL)	406 (≈ 915 µg/mL)	433 (≈ 976 µg/mL)	0.9	–	–	–	–	–	–	solubility ([1]; pH 4.8, Solubility Conc., pH 4.8, vehicle 10 mM phosphate): 71 µM (≈ 160 µg/mL); solubility ([1]; pH 5.6, Solubility Conc., pH 5.6, vehicle 10 mM phosphate): 40 µM (≈ 90.1 µg/mL); solubility ([1]; pH 7.5, Solubility Conc., pH 7.5, vehicle 10 mM phosphate): 410 µM (≈ 924 µg/mL); solubility ([1]; pH 8.1, Solubility Conc., pH 8.1, vehicle 10 mM phosphate): 415 µM (≈ 935 µg/mL)
CC(=O)N[C@H]1CCCNC(=O)C[C@@H](C(=O)N2CCC[C@H]2C(=O)N2CCC[C@H]2C(=O)N[C@@H](CCCNC(=N)N)C(=O)N[C@@H](CCC(=O)O)C(=O)N[C@@H](CCCCN(CC(=O)O)CC(=O)O)C(=O)N[C@@H](CCCCNC(=O)COCCOCCNC(=O)CCCCCCCCCCCCCCCCC(=O)O)C(N)=O)NC(=O)[C@H](Cc2c[nH]c3ccccc23)NC(=O)[C@H](CCCNC(=N)N)NC(=O)[C@@H](Cc2ccccc2)NC(=O)[C@H](Cc2c[nH]cn2)NC1=O [Example 34, Ac-c[Orn-His-D-Phe-Arg-Trp-Asp]-Pro-Pro-Arg-Glu-Lys(biscarboxymethyl)-Lys({2-[2-(17-carboxyheptadecanoylamino)ethoxy]ethoxy}acetyl)-NH2] (Ac-[Orn]H[dF]RWDPPRE[Lys(CH2CO2H)2]K([AEEA-C18 diacid])-NH2; lactam 1-6)	–	–	–	–	–	0.8	165 (≈ 361 µg/mL)	261 (≈ 572 µg/mL)	355 (≈ 778 µg/mL)	–	–	–	solubility ([1]; pH 5.5, Solubility Conc.): 27 µM (≈ 59.1 µg/mL); solubility ([1]; pH 6.3, Solubility Conc.): 42 µM (≈ 92 µg/mL); solubility ([1]; pH 6.6, Solubility Conc.): 62 µM (≈ 136 µg/mL); solubility ([1]; pH 6.9, Solubility Conc.): 87 µM (≈ 191 µg/mL); solubility ([1]; pH 7.8, Solubility Conc.): 420 µM (≈ 920 µg/mL); solubility ([1]; pH 8, Solubility Conc.): 360 µM (≈ 789 µg/mL)
CC(=O)N[C@H]1CC(=O)NCCCC[C@@H](C(=O)N2CCC[C@H]2C(=O)N2CCC[C@H]2C(=O)N[C@@H](CCCNC(=N)N)C(=O)N[C@@H](CC(=O)O)C(=O)N[C@@H](CCCCN(CC(=O)O)CC(=O)O)C(=O)N[C@@H](CCCCNC(=O)COCCOCCNC(=O)CCCCCCCCCCCCCCCc2nnn[nH]2)C(N)=O)NC(=O)[C@H](Cc2c[nH]c3ccccc23)NC(=O)[C@H](CCCNC(=N)N)NC(=O)[C@@H](Cc2ccccc2)NC(=O)[C@H](Cc2c[nH]cn2)NC1=O [Example 35, Ac-c[Asp-His-D-Phe-Arg-Trp-Lys]-Pro-Pro-Arg-Asp-Lys(biscarboxymethyl)-Lys[(2-{2-[16-(tetrazol-5-yl)hexadecanoylamino]ethoxy}ethoxy)acetyl]-NH2] (Ac-DH[dF]RWKPPRD[Lys(CH2CO2H)2]K([AEEA-Palmitoyl(16-(5-tetrazolyl))])-NH2; lactam 1-6)	–	–	–	–	–	13	126 (≈ 277 µg/mL)	211 (≈ 464 µg/mL)	425 (≈ 935 µg/mL)	526 (≈ 1160 µg/mL)	537 (≈ 1180 µg/mL)	572 (≈ 1260 µg/mL)	solubility ([1]; pH 6.4, Solubility Conc.): 24 µM (≈ 52.8 µg/mL); solubility ([1]; pH 6.8, Solubility Conc.): 44 µM (≈ 96.8 µg/mL)
CC(=O)N[C@H]1CCC(=O)NCCC[C@@H](C(=O)N2CCC[C@H]2C(=O)N2CCC[C@H]2C(=O)N[C@@H](CCCNC(=N)N)C(=O)N[C@@H](CC(=O)O)C(=O)N[C@@H](CCCCN(CC(=O)O)CC(=O)O)C(=O)N[C@@H](CCCCNC(=O)COCCOCCNC(=O)CCCCCCCCCCCCCCCCC(=O)O)C(N)=O)NC(=O)[C@H](Cc2c[nH]c3ccccc23)NC(=O)[C@H](CCCNC(=N)N)NC(=O)[C@@H](Cc2ccccc2)NC(=O)[C@H](Cc2cnc[nH]2)NC1=O [Example 38, Ac-c[Glu-His-D-Phe-Arg-Trp-Orn]-Pro-Pro-Arg-Asp-Lys(biscarboxymethyl)-Lys({2-[2-(17-carboxyheptadecanoylamino)ethoxy]ethoxy}acetyl)-NH2] (Ac-EH[dF]RW[Orn]PPRD[Lys(CH2CO2H)2]K([AEEA-C18 diacid])-NH2; lactam 1-6)	–	–	–	–	–	0.9	–	–	218 (≈ 478 µg/mL)	282 (≈ 618 µg/mL)	422 (≈ 924 µg/mL)	430 (≈ 942 µg/mL)	solubility ([1]; pH 5.4, Solubility Conc.): 21 µM (≈ 46 µg/mL); solubility ([1]; pH 6.2, Solubility Conc.): 36 µM (≈ 78.9 µg/mL); solubility ([1]; pH 6.5, Solubility Conc.): 58 µM (≈ 127 µg/mL); solubility ([1]; pH 7, Solubility Conc.): 111 µM (≈ 243 µg/mL); solubility ([1]; pH 7.6, Solubility Conc.): 360 µM (≈ 789 µg/mL)
